Experimental data reported in patent US20030113810A1, “Novel assay” (priority 2000, published 2003).
Where two headings read alike, the source gives them in different places.

Tests used:
human GPR41 = target: T1, human GPR41 (Homo sapiens, UniProt O14843)
T1 sequence (O14843 1-346): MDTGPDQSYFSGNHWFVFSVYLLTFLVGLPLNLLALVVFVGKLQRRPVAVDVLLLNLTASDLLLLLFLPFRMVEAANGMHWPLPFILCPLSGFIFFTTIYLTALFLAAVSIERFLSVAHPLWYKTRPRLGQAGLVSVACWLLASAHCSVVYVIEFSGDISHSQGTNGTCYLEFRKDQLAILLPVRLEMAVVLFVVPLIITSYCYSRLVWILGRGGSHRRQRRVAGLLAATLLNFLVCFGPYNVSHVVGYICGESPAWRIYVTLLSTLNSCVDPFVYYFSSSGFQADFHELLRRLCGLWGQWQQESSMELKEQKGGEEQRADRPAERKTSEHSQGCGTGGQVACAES
Method: HEK293T cells (HEK293 cells stably expressing the SV40 large T-antigen) were maintained in DMEM containing 10% (v/v) foetal calf serum and 2 mM glutamine. Cells were seeded in 60 mm culture dishes and grown to 60-80% confluency (18-24 h) prior to transfection with pCDNA3 containing the relevant DNA species using Lipofectamine reagent. For transfection, 3 μg of DNA was mixed with 10 μl of Lipofectamine in 0.2 ml of Opti-MEM (Life Technologies Inc.) and was incubated at room temperature for 30 min prior to the addition of 1.6 ml of Opti-MEM. Cells were exposed to the Lipofectamine/DNA mixture for 5 h and 2 ml of 20% (v/v) newborn calf serum in DMEM was then added. Cells were harvested 48-72 h after transfection.
Plasma membrane-containing P2 particulate fractions were prepared from cell pastes frozen at −80° C. after harvest. All procedures were carried out at 4° C. Cell pellets were resuspended in 1 ml of 10 mM Tris-HCl and 0.1 mM EDTA, pH 7.5 (buffer A) and by homogenisation for 20 s with a polytron homogeniser followed by passage (5 times) through a 25-guage needle. Cell lysates were centrifuged at 1,000 g for 10 min in a microcentrifuge to pellet the nuclei and unbroken cells and P2 particulate fractions were recovered by microcentrifugation at 16,000 g for 30 min. P2 particulate fractions were resuspended in buffer A and stored at −80° C. until required. Protein concentrations were determined using the bicinchoninic acid (BCA) procedure (4) using BSA as a standard.
Assays were performed in 96-well format using a method modified from Wieland and Jakobs, 1994. Membranes (10 μg per point) were diluted to 0.083 mg/ml in assay buffer (20 mM HEPES, 100 mM NaCl, 10 mM MgCl2, pH7.4) supplemented with saponin (10 mg/l) and pre-incubated with 40 μM GDP. […] Non-specific binding was determined by the inclusion of 0.6 mM GTP. […] Plates were centrifuged at 1500 g for 5 min and bound [^35S]GTPγS was determined by scintillation counting on a Wallac 1450 microbeta Trilux scintillation counter.

rGPR41 [1] = target: T2, rGPR41 (Rattus norvegicus, UniProt B2GV46); assay: Yeast FUS1-lacZ/FUS1-HIS3 reporter assay, rGPR41 in S. cerevisiae MMY22 (Gpa1/Gαo), FDG substrate; format: cell-based; design: expressed in transfected cells; host or cells: S. cerevisiae MMY22 (A1, A5; Gpa1/Gαo integrated) or MMY11 + pRS314-Gpa1/Gαo (A4), transformed with p426GPD-rGPR41
T2 sequence (B2GV46 1-319): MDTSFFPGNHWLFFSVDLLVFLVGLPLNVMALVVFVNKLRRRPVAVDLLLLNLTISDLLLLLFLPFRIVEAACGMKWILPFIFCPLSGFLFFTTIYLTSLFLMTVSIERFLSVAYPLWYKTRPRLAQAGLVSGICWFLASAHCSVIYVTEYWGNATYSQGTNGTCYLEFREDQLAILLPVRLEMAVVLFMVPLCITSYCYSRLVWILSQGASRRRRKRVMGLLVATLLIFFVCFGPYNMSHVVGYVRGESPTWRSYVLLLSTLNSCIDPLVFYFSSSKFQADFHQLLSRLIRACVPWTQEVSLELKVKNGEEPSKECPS
Method: A study was carried out of the function of rGPR41 following expression in S. cerevisiae MMY22, which is a derivative of S. cerevisiae MMY11 containing a copy of the gene encoding the Gpa1/Gαo transplant chimera described above (in which the 5 C-terminal amino acids of Gpa1 are replaced with the 5 C-terminal amino acids of Gαo) integrated into the genome. To do this, a cassette comprising the GPA1 promoter, nucleotide sequence encoding Gpa1/Gαo, and the terminator was sub-cloned from pRS314-Gpa1/Gαo into the yeast integrating plasmid pRS304 (Sikorski and Hieter, 1989). The resulting plasmid pRS304-Gpa1/Gαo was transformed into MMY11 and integrated into the trp1 locus creating MMY22.
The rGPR41 expression construct described above, p462GPD-rGPR41 was introduced into MMY22 by transformation as described above. Four separate transformants were tested for reporter gene activation in response to propionate. Assays for FUS1-lacZ and FUS1-HIS3 induction were performed as described, except the β-galactosidase (lacZ) substrate fluorescein di-β-D-galactopyranoside (FDG) was used in place of CPRG, and 3-aminotriazole concentration was 5 mM. Also, black-walled 96-well microtitre plates were used, and fluorescence resulting from degradation of FDG to fluorescein due to β-galactosidase was determined using a Spectrofluor microtitre plate reader (Tecan)(excitation wavelength: 485 nm; emmision wavelength: 535 nm).
A series of carboxylic acids and other compounds related to propionate were tested for the ability to activate rGPR41. Experiments were performed as described above, using yeast cells of strain MMY22 transformed with rGPR41 expression plasmid p462GPD-rGPR41, except that the agonist propionate was replaced with one of a series of other compounds, which are listed in table 2 below.
(§1) In vivo assays of reporter gene induction were carried out by suspending MMY11 cells transformed as described above to a density of 0.02 OD600/ml in 200 μl SC-glucose (2%) medium lacking tryptophan, uracil and histidine. This medium was supplemented with 10 mM 3-aminotriazole and the β-galactosidase (lacZ) substrate chlorophenolred-β-D-galactopyranoside (CPRG; Boehringer Mannheim) to a concentration of 0.1 mg/ml. Additionally the medium was supplemented with various concentrations of the agonist ligand, propionate (sodium propionate, pH 7.0). To visualise the yellow to red colour change reaction occurring on degradation of CPRG due to β-galactosidase, the medium was buffered to pH 7 with 0.1 M sodium phosphate. The assay was conducted in flat-bottomed sterile 96-well microtitre plates. Plates were incubated for 24 hours at 30° C. without agitation, and absorbance at 570 nm was determined using a Spectrofluor microtitre plate reader (Tecan).

rGPR41 [2] = target: T2, rGPR41; assay: Yeast reporter assay, rGPR41 in MMY22, CPRG substrate (3-hydroxybutyrate study); format: cell-based; design: expressed in transfected cells; host or cells: S. cerevisiae MMY22 (A1, A5; Gpa1/Gαo integrated) or MMY11 + pRS314-Gpa1/Gαo (A4), transformed with p426GPD-rGPR41; conditions: for agonism at rGPR41 (in words): FIG. 9
Method: A study was made of the agonism of rGPR41 by the naturally-occurring ketone body compound, 3-hydroxybutyrate. Experiments were performed as described above, using yeast cells of strain MMY22 transformed with rGPR41 expression plasmid p462GPD-rGPR41, except that the substrate CPRG was used. Also, the agonist propionate was replaced with 3-hydroxybutyrate (β-hydroxybutyrate), either as a racemic mix of both stereoisomers, or as purified enantiomers D-3-hydroxybutyrate, or L-3-hydroxybutyrate.
as §1

[3] = tested on: isoprenaline-stimulated adenylate cyclase activity in rat primary adipocytes; conditions: 10 minutes at 37° C., FIG. 11
Method: Isoprenaline stimulates adenylate cyclase activity and subsequently the process of lipolysis following activation of β-adrenoceptors and G,a in adipocytes.
A reaction mixture of 500 μl was used in a 1.5 ml eppendorf tube. The reaction was started by the addition of 100 μl of adipocytes to a 400 μl volume of Krebs buffer containing isoprenaline and test compound. Following the addition of the adipocytes the reaction tube was incubated at 37° C. for 10 minutes. The reaction was stopped with the addition of 500 μl of a stop mixture containing methanol (1 part), chloroform (2 parts) and 0.1N HCl (0.1 part). Following the addition of the stop mixture each tube was vortexed and then centifuged at 5000 rpm for 5 minutes. 300 μl of the supernatent was removed and stored at −20° C. The levels of cAMP in each samples were determined using an ELISA kit from R&D systems (DE0355).

rGPR41 [4] = target: T2, rGPR41; assay: Yeast reporter gene induction, MMY11 cells with p426GPD-rGPR41 and pRS314-Gpa1/Gαo, CPRG substrate; format: cell-based; conditions: MMY11, Gpa1/Gαo transplant; FIG. 6
From the text: Significant absorbance at 570 nm, corresponding to induction of FUS1-lacZ and FUS1-HIS3 reporter genes, was detected for MMY11 cells containing p426GPD-rGPR41 in combination with pRS314-Gpa1/Gαo. These cells express rGPR41 in combination with a Gα subunit identical to Gpa1 but in which the 5 C-terminal amino acids are replaced with the 5 C-terminal amino acids of the mammalian Gα subunit, Gαo. This response is dependant on the presence of the agonist ligand propionate since no induction is detected in the absence of propionate (FIG. 6). […] Of the other Gα subunits tested, the pRS314-Gpa1/Gα12 and pRS314-Gpa1/Gα13 transplants supported weak rGPR41 coupling detectable after 48 hrs incubation (data not shown), and with no other Gα subunit could ligand responses of rGPR41 be detected.
The yeast strain MMY11 has been described previously (Olesnicky et al, 1999). […]
In vivo assays of reporter gene induction were carried out by suspending MMY11 cells transformed as described above to a density of 0.02 OD600/ml in 200 μl SC-glucose (2%) medium lacking tryptophan, uracil and histidine. […] Plates were incubated for 24 hours at 30° C. without agitation, and absorbance at 570 nm was determined using a Spectrofluor microtitre plate reader (Tecan).

[5] = membranes of HEK293T cells, human GPR41 + Go1α, FIG. 2-4
[6] = yeast MMY22 with p462GPD-rGPR41, FDG fluorescence, compounds as salt solutions buffered to pH 7.0, read-out: Agonism @ rGPR41 Approx. EC50
[7] = yeast MMY22 with p462GPD-rGPR41, FDG fluorescence, compounds as salt solutions buffered to pH 7.0

CC(O)CC(=O)O (racemic) [DL-b-Hydroxybutyrate]
stimulation of [35S]GTPγS binding (human GPR41; [5]): elevate [^35S]GTPγS binding | EC50 (rGPR41 [1]; [6]): ~10000 µM | agonism at rGPR41 (in words) (rGPR41 [2]): agonist at rGPR41 with a potency similar or slightly less than acetate | lowest concentrations causing detectable activation of rGPR41 (threshold) (rGPR41 [2]; FIG. 9, listed as 3-hydroxybutyrate): approximately 1 mM

C[C@@H](O)CC(=O)O [D-b-Hydroxybutyrate]
EC50 (rGPR41 [1]; [6]): ~10000 µM | agonism at rGPR41 (in words) (rGPR41 [2]): similarly active to the racemic mix DL-3-hydroxybutyrate

CC(=O)O [Acetate]
stimulation of [35S]GTPγS binding (human GPR41): stimulation of [^35S]GTPγS binding | EC50 (rGPR41 [1]; [6]): ~1000 µM | isoprenaline-amplified cAMP levels [3]: reduction of isoprenaline-amplified cAMP levels

CCCCCCCCCCCCCCCC(=O)O [palmitate]
Agonism @ rGPR41 Approx. EC50 (M) (rGPR41 [1]; [7]): Inactive

CCC(=O)O [Propionate]
stimulation of [35S]GTPγS binding (human GPR41; [5]): most potent and efficacious | fluorescence, activation of the pheromone response pathway by rGPR41 (rGPR41 [1]; MMY22, four transformants, FIG. 7): dependent on the concentration of propionate | EC50 (rGPR41 [1]; yeast MMY22, text of Example 8, read-out: EC50 value at rGPR41): 5 µM | EC50 (rGPR41 [1]; [6]): ~5 µM | induction of FUS1-lacZ and FUS1-HIS3 reporter genes (absorbance at 570 nm) (rGPR41 [4]): can be activated by propionate

NCC(=O)O [Glycine]
Agonism @ rGPR41 Approx. EC50 (M) (rGPR41 [1]; [7]): Inactive

CC(C)(C)C(=O)O [pivalic acid]
EC50 (rGPR41 [1]; [6]): ~500 µM

C[C@H](N)C(=O)O [Alanine]
Agonism @ rGPR41 Approx. EC50 (M) (rGPR41 [1]; [7]): Inactive

C=CCCC(=O)O [4-pentenoate]
EC50 (rGPR41 [1]; [6]): ~30 µM

CCCCCCCCCC(=O)O [Decanoic C10 acid]
relative agonist activity at rGPR41 (in words) (rGPR41 [1]; yeast MMY22, carboxylic acid series C1-C12, FIG. 8): inactive | Agonism @ rGPR41 Approx. EC50 (M) (rGPR41 [1]; [7]): inactive/toxic
